One data set is described as follows: Solubility in water. The format is physicochemical. Particulars: room temperature. The method, then:
In accordance with the present invention, the solubility and particularly the solubility of the compound having the general formula (1) or the general formula (2) in water at 23°C is measured as follows: 1 mg sample is weighed into an Erlenmeyer flask and is then mixed homogeneously with 4 ml of water with a spatula at 23°C. The remaining substance on the spatula is stripped off with a magnetic stirrer bar, which is then added to the Erlenmeyer flask. While stirring with a magnetic stirrer, water is added dropwise with a burette until the solution in the Erlenmeyer flask becomes clear at 23°C. After that, the solubility of compound in water is calculated by calculating the ratio of weighed compound divided by the volume of added water and then by recalculating this ratio to 1 I of water.

The nature of data set [1]: Absorption and fluorescence in toluene. It counts as physicochemical. Particulars: for molar extinction coefficient ε: at maximum absorption wavelength.

For the molecule `COCCOCCOCCOCCOc1cc(-c2ccc3cc4cc5c(-c6c(C)cc(C)cc6C)cc6cc7c(-c8cc(OCCOCCOCCOCCOC)c(OCCOCCOCCOCCOC)c(OCCOCCOCCOCCOC)c8)ccc8cc9cc%10c(-c%11c(C)cc(C)cc%11C)cc%11cc2c3c2c%11c%10c3c9c(c87)c6c5c3c42)cc(OCCOCCOCCOCCOC)c1OCCOCCOCCOCCOC` [Example 5, 3,11-bis(3,4,5-tris(2,5,8,11-tetraoxatridecan-13-yloxy)phenyl)-6,14-dimesityldibenzo[hi, st]ovalene], the “solubility of this compound in water” value in the data set “Solubility in water” is 100 µg/mL.

In the case of `CC(C)[Si](C#Cc1c2cccc3c4ccc5ccc6c(C#C[Si](C(C)C)(C(C)C)C(C)C)c7cccc8c9ccc%10ccc1c1c%10c9c9c(c78)c6c5c4c9c1c23)(C(C)C)C(C)C` [Example 6, 6, 14-di(triisopropylsilylethynyl) dibenzo[hi,st]ovalene], the “absorption spectrum and emission spectrum” value in data set [1] was “narrow absorption spectrum as well as a narrow emission spectrum”. For the same molecule, the “molar extinction coefficient ε” value in data set [1] (in toluene (10^-5 mol/L)) is 61511 M⁻¹ cm⁻¹.

For the molecule “6,14-didodecyldibenzo[hi,st]ovalene [Example 2]”, in data set [1] (in toluene (10^-5 mol/L)), the fluorescence quantum yield was determined as 0.85, the maximum absorption wavelength worked out at 611 nm and the “molar extinction coefficient ε” value was found to be 203000 M⁻¹ cm⁻¹.

Consider `Cc1cccc(C)c1-c1c2cccc3c4ccc5ccc6c(-c7c(C)cccc7C)c7cccc8c9ccc%10ccc1c1c%10c9c9c(c78)c6c5c4c9c1c23` [Example 3, 6, 14-bis(dimethylphenyl)dibenzo[hi,st]ovalene], for which the “absorption spectrum and emission spectrum” value in data set [1] was “narrow absorption spectrum as well as a narrow emission spectrum”. The “molar extinction coefficient ε” value in data set [1] (in toluene (10^-5 mol/L)) was determined as 283000 M⁻¹ cm⁻¹.

Take “N-hexyl fumaric acid imide group substituted 6,14-dimesityldibenzo[hi,st]ovalene [Example 9]”: in data set [1], the “absorption spectrum and emission spectrum” value is listed as “narrow absorption spectrum as well as a narrow emission spectrum”.

Take `CCCCCCCCCCCCOc1cc(-c2c3cccc4c5ccc6ccc7c(-c8cc(OCCCCCCCCCCCC)c(OCCCCCCCCCCCC)c(OCCCCCCCCCCCC)c8)c8cccc9c%10ccc%11ccc2c2c%11c%10c%10c(c89)c7c6c5c%10c2c34)cc(OCCCCCCCCCCCC)c1OCCCCCCCCCCCC` [Example 7, 6,14-bis[3,4,5-tris(dodecoxyl)phenyl]dibenzo[hi,st]ovalene]: the “molar extinction coefficient ε” value in data set [1] (in toluene (10^-5 mol/L)) turned out to be 385000 M⁻¹ cm⁻¹.

`c1ccc(-c2c3cccc4c5ccc6ccc7c(-c8ccccc8)c8cccc9c%10ccc%11ccc2c2c%11c%10c%10c(c89)c7c6c5c%10c2c34)cc1` [Example 8, 6,14-diphenyldibenzo[hi,st]ovalene]: the “absorption spectrum and emission spectrum” value in data set [1] is given as “narrow absorption spectrum as well as a narrow emission spectrum”.

For the origin of these results see patent EP4621028A1, “FLUORESCENCE RECOVERY IN NANOGRAPHENE” (Max-Planck-Gesellschaft zur Förderung der Wissenschaften …, priority 2024, dated 2025).
